Test results taken from the supplement of paper PMC10307832.

How the values were obtained:
Assay in all cases: relative viability (nuclei count vs DMSO), 5 days (fraction); higher = more cells survive
[1] = compound: COc1cc2/c(=N/c3ccc(Br)cc3F)nc[nH]c2cc1OCC1CCN(C)CC1 [Vandetanib] + C[C@@H](Oc1cc(-c2cnn(C3CCNCC3)c2)cnc1N)c1c(Cl)ccc(F)c1Cl [Crizotinib] (partner 1 µM)
Method in brief: (§1)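 Lung cancer cell lines, seeded in 1536-well plates, were treated the following day by pin tool with a single drug or with five library-drug doses (not always all listed) in √10 steps on top of a fixed anchor-drug dose. Cells were fixed and nuclei stained in one step after 5 days, and nuclei were counted. Relative viability is the nuclei count for treated wells divided by that for vehicle wells, reported as medians of duplicate plates.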

[2] = compound: C1=CC=C2C(=C1)N=C(S2)C(C#N)C3=NC(=NC=C3)NCCC4=CN=CC=C4 + CS(=O)(=O)N1CCN(Cc2cc3nc(-c4cccc5[nH]ncc45)nc(N4CCOCC4)c3s2)CC1 [Pictilisib] (partner 1 µM)
Method in brief: as §1

[3] = compound: COc1cc2/c(=N/c3ccc(Br)cc3F)nc[nH]c2cc1OCC1CCN(C)CC1 [Vandetanib] + Cc1nc(Nc2ncc(C(=O)Nc3c(C)cccc3Cl)s2)cc(N2CCN(CCO)CC2)n1 [Dasatinib] (partner 0.075 µM)
Method in brief: as §1

[4] = compound: C1=CC=C2C(=C1)N=C(S2)C(C#N)C3=NC(=NC=C3)NCCC4=CN=CC=C4 + C[C@@H](Oc1cc(-c2cnn(C3CCNCC3)c2)cnc1N)c1c(Cl)ccc(F)c1Cl [Crizotinib] (partner 1 µM)
Method in brief: as §1

Cell Line | relative viability ([1]; first compound 0.02 µM) | relative viability ([1]; first compound 0.06325 µM) | relative viability ([1]; first compound 0.2 µM) | relative viability ([1]; first compound 0.6325 µM) | relative viability ([1]; first compound 2 µM) | relative viability ([2]; first compound 0.005 µM) | relative viability ([2]; first compound 0.01581 µM) | relative viability ([2]; first compound 0.05 µM) | relative viability ([2]; first compound 0.1581 µM) | relative viability ([2]; first compound 0.5 µM) | relative viability ([3]; first compound 0.02 µM) | relative viability ([3]; first compound 0.06325 µM) | relative viability ([3]; first compound 0.2 µM) | relative viability ([3]; first compound 0.6325 µM) | relative viability ([3]; first compound 2 µM) | relative viability ([4]; first compound 0.005 µM) | relative viability ([4]; first compound 0.01581 µM) | relative viability ([4]; first compound 0.05 µM) | relative viability ([4]; first compound 0.1581 µM) | relative viability ([4]; first compound 0.5 µM)
HCC-78 | 0.318 | 0.352 | 0.328 | 0.331 | 0.257 | 0.26 | 0.167 | 0.174 | 0.25 | 0.14 | 0.428 | 0.286 | 0.362 | 0.451 | 0.336 | 0.325 | 0.36 | 0.325 | 0.491 | 0.317
EMC-BAC-2 | 0.764 | 0.778 | 0.432 | 0.765 | 0.708 | 0.492 | 0.512 | 0.484 | 0.572 | 0.501 | 0.332 | 0.312 | 0.327 | 0.295 | 0.3 | 0.645 | 0.769 | 0.704 | 0.766 | 0.581
NCI-H2170 | 1.22 | 1.26 | 1.11 | 1.18 | 1.1 |  | 0.298 | 0.292 | 0.394 | 0.32 | 0.55 | 0.555 | 0.487 | 0.462 | 0.609 |  | 1.33 | 1.1 | 1.31 | 1.05
NCI-H2228 | 0.446 | 0.473 |  | 0.484 | 0.479 | 0.341 | 0.283 | 0.37 | 0.307 | 0.402 | 0.464 | 0.478 | 0.503 | 0.463 | 0.481 | 0.464 | 0.444 | 0.483 | 0.454 | 0.386
HCC-827 | 0.983 | 0.93 | 0.851 | 0.242 | 0.192 | 0.982 | 0.912 | 0.864 | 1.25 | 1.09 | 0.489 | 0.276 | 0.284 | 0.152 | 0.13 | 0.874 | 0.945 | 0.907 | 0.958 | 0.905
ChaGo-K-1 | 1.1 | 1.19 | 1.14 | 1.13 | 1.16 | 0.655 |  | 0.445 | 0.953 | 0.662 | 0.581 | 0.63 | 0.269 | 0.584 | 0.607 | 0.761 |  | 1.2 | 1.29 | 1.02
LXF-289 | 0.801 | 0.789 | 0.827 | 0.828 | 0.792 | 0.705 | 0.922 | 0.893 | 0.899 | 0.676 | 0.24 | 0.218 | 0.107 | 0.257 | 0.253 | 0.761 | 0.798 | 0.831 | 0.869 | 0.798
HOP-62 | 1.03 | 0.919 | 0.695 | 1.01 | 1.11 | 0.585 | 0.672 | 0.646 | 0.945 | 0.775 | 0.611 | 0.569 | 0.671 | 0.573 | 0.684 | 0.779 | 0.815 | 0.675 | 1.01 | 0.725
LCLC-103H | 1.03 | 1.01 | 1.12 | 1.05 | 1 | 0.493 | 0.446 | 0.498 | 0.707 | 0.681 | 0.511 | 0.422 | 0.43 | 0.424 | 0.47 | 1.12 | 1.03 | 1 | 1.13 | 0.964
LOU-NH91 | 0.766 | 0.656 | 0.637 | 0.558 | 0.533 | 0.51 | 0.515 | 0.477 | 0.533 | 0.489 | 0.53 | 0.433 | 0.506 | 0.442 | 0.317 | 0.709 | 0.786 | 0.689 | 0.695 | 0.685
NCI-H1915 | 0.842 | 0.889 | 0.933 | 0.857 | 0.892 | 0.933 | 0.929 | 0.923 | 1.1 | 0.879 | 0.278 | 0.279 | 0.304 | 0.313 | 0.312 | 0.718 | 0.955 | 0.928 | 0.994 | 0.565
NCI-H1563 | 0.887 | 0.835 | 0.794 | 0.852 | 0.858 | 0.642 | 0.619 | 0.677 | 0.709 | 0.647 | 0.44 | 0.443 | 0.462 | 0.472 | 0.454 | 0.86 | 0.843 | 0.838 | 0.814 | 0.815
COR-L23 | 0.698 | 0.623 | 0.114 | 0.671 | 0.729 | 0.531 | 0.792 | 0.725 | 0.952 | 0.762 | 0.485 | 0.438 | 0.462 | 0.446 | 0.564 | 0.6 | 0.596 | 0.728 | 0.653 | 0.568
NCI-H1734 | 0.737 | 0.618 | 0.67 | 0.639 | 0.648 | 0.439 | 0.488 | 0.406 | 0.587 | 0.473 | 0.471 | 0.497 | 0.44 | 0.469 | 0.468 | 0.555 | 0.734 | 0.684 | 0.693 | 0.741
NCI-H2405 | 0.876 | 0.664 | 0.875 | 0.88 | 0.795 | 0.456 | 0.378 | 0.397 | 0.506 | 0.422 | 0.217 | 0.183 | 0.2 | 0.187 | 0.199 | 0.819 | 0.915 | 0.872 |  | 0.809
NCI-H2087 | 0.785 | 0.949 | 0.835 | 0.88 | 0.904 | 0.873 | 0.856 | 0.883 | 1.04 | 0.92 | 0.809 | 0.661 | 0.684 | 0.835 | 0.984 | 0.908 | 0.807 | 0.76 | 0.954 | 0.727
